From patent US20240246946A1, “MODULATORS OF TREX1” (Constellation Pharmaceuticals, Inc., priority 2021, published 2024)

Experiments:
full length human TREX1 = target: T1, full length human TREX1 (Homo sapiens, UniProt Q9NSU2); test: hTREX1 Biochemical Assay (fluorescence, dsDNA substrate degradation); details: biochemical, read-out: hTREX1 IC50
T1 construct: N-terminally His-Tev tagged full length human TREX1; made in house; host or cells: E. coli
T1 sequence (Q9NSU2 1-314): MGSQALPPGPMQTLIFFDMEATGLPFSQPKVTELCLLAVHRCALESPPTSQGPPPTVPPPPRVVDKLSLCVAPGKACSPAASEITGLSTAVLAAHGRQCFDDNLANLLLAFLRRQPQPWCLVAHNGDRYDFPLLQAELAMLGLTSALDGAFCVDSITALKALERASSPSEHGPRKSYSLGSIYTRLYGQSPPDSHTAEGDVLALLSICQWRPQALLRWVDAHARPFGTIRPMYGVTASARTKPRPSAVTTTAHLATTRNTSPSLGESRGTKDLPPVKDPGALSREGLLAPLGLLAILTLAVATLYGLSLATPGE
Method in brief: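 Fluorescence rises as enzyme degrades a quenched TEX615-labelled dsDNA substrate (60 nM) in 50 mM Tris, 150 mM NaCl, 5 mM MgCl2, pH 7.4. Full-length His-Tev-tagged human TREX1, 4 pM, sits with compound 4 hours at 25° C before substrate; reaction 18 hours, stopped with EDTA.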

[1] = target: T2, human TREX2 (residues M44-A279) (Homo sapiens, UniProt Q9BQ50); test: hTREX2 Biochemical Assay (fluorescence, dsDNA substrate degradation); details: biochemical selectivity for hTREX1 vs hTREX2
T2 construct: human TREX2 (residues M44-A279, expressed in E. coli); made in house; host or cells: E. coli
T2 sequence (Q9BQ50 44-279 isoform Q9BQ50-1): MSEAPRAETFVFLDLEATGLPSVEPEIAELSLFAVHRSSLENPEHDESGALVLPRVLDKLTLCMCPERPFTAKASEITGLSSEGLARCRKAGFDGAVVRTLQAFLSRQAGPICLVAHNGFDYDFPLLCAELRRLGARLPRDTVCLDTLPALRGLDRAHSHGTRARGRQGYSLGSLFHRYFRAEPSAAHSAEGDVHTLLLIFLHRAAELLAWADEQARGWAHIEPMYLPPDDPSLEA
Method in brief: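 Fluorogenic dsDNA degradation read at 615 nm (570 nm excitation) after EDTA quench. Final 60 nM substrate, 50 pM His-Tev-tagged enzyme, 5 mM MgCl2, pH 7.4, 1.0% DMSO; 4 h compound–enzyme preincubation then 18 h reaction, both 25 °C; 10-point titration.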

full length mouse TREX1 = target: T3, full length mouse TREX1 (Mus musculus, UniProt Q91XB0); test: mTREX1 Biochemical Assay (fluorescence, dsDNA substrate degradation); details: biochemical, read-out: mTREX1 IC50
T3 construct: N-terminally His-Tev tagged full length mouse TREX1; made in house; host or cells: E. coli
T3 sequence (Q91XB0 1-314): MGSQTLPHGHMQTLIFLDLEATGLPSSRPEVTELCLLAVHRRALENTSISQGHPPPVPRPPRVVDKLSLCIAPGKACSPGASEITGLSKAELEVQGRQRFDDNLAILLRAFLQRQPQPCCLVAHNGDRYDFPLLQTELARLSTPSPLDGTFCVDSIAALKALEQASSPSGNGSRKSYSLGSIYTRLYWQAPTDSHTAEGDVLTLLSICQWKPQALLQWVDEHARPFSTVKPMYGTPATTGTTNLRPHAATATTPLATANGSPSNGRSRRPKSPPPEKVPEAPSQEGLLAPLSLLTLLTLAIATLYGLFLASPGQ
Method in brief: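 Reaction run 18 h at 25° C. with 60 nM TEX615/quencher-labelled dsDNA and 6 pM mouse TREX1 in Tris buffer (pH 7.4, 5 mM MgCl2, 1.0% DMSO), enzyme having sat 4 h with compound across 10 concentrations. EDTA quench; substrate degradation measured as fluorescence increase.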

| IC50 (full length human TREX1) [nM] | hTREX1 vs hTREX2 selectivity [1] | IC50 (full length mouse TREX1) [nM] | SMILES |
| --- | --- | --- | --- |
| > 10 | A (A = <25 fold selective for hTREX1) | > 10 | Cc1n[nH]c(C)c1C(c1ccccc1C#N)C(C)c1nc(C(=O)Nc2cnoc2)c(O)c(=O)n1C (single isomer, unassigned) [Example 95 D2E1] |
| < 1 | C (C = >50 fold selective for hTREX1) | 1 to 10 | Cc1cn(C)nc1C(c1ccccc1C#N)C(C)c1nc(C(=O)Nc2cnoc2)c(O)c(=O)n1C (single isomer, unassigned) [Example 64 D2E1] |
| > 10 | A (A = <25 fold selective for hTREX1) | > 10 | CC(c1nc(C(=O)Nc2cnoc2)c(O)c(=O)n1C)C(c1cnn(C(C)C)c1)c1ccccc1C#N (single isomer, unassigned) [Example 105 D1E1] |
| > 10 | A (A = <25 fold selective for hTREX1) | > 10 | CC(C)c1cnn(C(c2ccccc2Cl)C(C)c2nc(C(=O)Nc3cnoc3)c(O)c(=O)n2C)c1 (single isomer, unassigned) [Example 135 D1E2] |
| > 10 | A (A = <25 fold selective for hTREX1) | > 10 | CC(c1nc(C(=O)Nc2cnoc2)c(O)c(=O)n1C)C(c1ccccc1Cl)n1cnc2ccccc21 (single isomer, unassigned) [Example 143 D1E2] |
| > 10 | A (A = <25 fold selective for hTREX1) | > 10 | CC(c1nc(C(=O)Nc2cnoc2)c(O)c(=O)n1C)C(c1cnn(CCOC(F)(F)F)c1)c1cc(F)ccc1C#N (single isomer, unassigned) [Example 101 D1E1] |
| 1 to 10 | C (C = >50 fold selective for hTREX1) | > 10 | CC(c1nc(C(=O)Nc2cnoc2)c(O)c(=O)n1C)C(c1cn(C)cn1)c1ccccc1C#N (single isomer, unassigned) [Example 39 D2E2] |
| > 10 | A (A = <25 fold selective for hTREX1) | > 10 | Cc1nnc(C(c2ccccc2Cl)C(C)c2nc(C(=O)Nc3cnoc3)c(O)c(=O)n2C)o1 (single isomer, unassigned) [Example 156 D2E1] |
| < 1 | C (C = >50 fold selective for hTREX1) | 1 to 10 | Cc1cnc(C)c(C(c2cc(F)ccc2C#N)C(C)c2nc(C(=O)Nc3cnoc3)c(O)c(=O)n2C)n1 (single isomer, unassigned) [Example 119 DIE1] |
| > 10 | A (A = <25 fold selective for hTREX1) | > 10 | CC(c1nc(C(=O)Nc2cnoc2)c(O)c(=O)n1C)C(c1cnn(C2COC2)c1)c1ccccc1C#N (single isomer, unassigned) [Example 106 D1E2] |
| 1 to 10 | A (A = <25 fold selective for hTREX1) | > 10 | CCn1cc(C(c2cc(F)ccc2Cl)C(C)c2nc(C(=O)Nc3cnoc3)c(O)c(=O)n2C)cn1 (single isomer, unassigned) [Example 60 D1E2] |
| > 10 | A (A = <25 fold selective for hTREX1) | > 10 | CC(c1nc(C(=O)Nc2cnoc2)c(O)c(=O)n1C)C(c1cnn(C)c1)c1ccccc1Cl (single isomer, unassigned) [Example 77 D2E2] |
| > 10 | A (A = <25 fold selective for hTREX1) | > 10 | CCn1cc(C(c2cc(F)ccc2Cl)C(C)c2nc(C(=O)Nc3cnoc3)c(O)c(=O)n2C)cn1 (single isomer, unassigned) [Example 60 D2E1] |

| SMILES | IC50 (full length human TREX1) [nM] | hTREX1 vs hTREX2 selectivity [1] | IC50 (full length mouse TREX1) [nM] |
| --- | --- | --- | --- |
| Cc1cnc(C)c(C(c2ccccc2C#N)C(C)c2nc(C(=O)Nc3cnoc3)c(O)c(=O)n2C)n1 (single isomer, unassigned) [Example 82 D2E2] | > 10 | B (B = 25 to 50-fold selective for hTREX1) | > 10 |
